Assay results from ChEMBL document CHEMBL1130041, “Halogenated 4-(phenoxymethyl)piperidines as potential radiolabeled probes for sigma-1 receptors: in vivo evaluation of [123I]-1-(iodopropen-2-yl)-4-[(4-cyanophenoxy)methyl]pip eri dine” (J Med Chem, 1997).

How the values were obtained:
[1] = organism: Rattus norvegicus; assay: Blockade of uptake of the radiotracer in posterior cortex; format: functional
[2] = In Vitro binding affinity for 5-hydroxytryptamine 2 receptor
[3] = biological target: D(2) dopamine receptor (Homo sapiens, UniProt P14416); assay: In vitro binding affinity for Dopamine receptor D2
Sequence of D(2) dopamine receptor (P14416 whole entry): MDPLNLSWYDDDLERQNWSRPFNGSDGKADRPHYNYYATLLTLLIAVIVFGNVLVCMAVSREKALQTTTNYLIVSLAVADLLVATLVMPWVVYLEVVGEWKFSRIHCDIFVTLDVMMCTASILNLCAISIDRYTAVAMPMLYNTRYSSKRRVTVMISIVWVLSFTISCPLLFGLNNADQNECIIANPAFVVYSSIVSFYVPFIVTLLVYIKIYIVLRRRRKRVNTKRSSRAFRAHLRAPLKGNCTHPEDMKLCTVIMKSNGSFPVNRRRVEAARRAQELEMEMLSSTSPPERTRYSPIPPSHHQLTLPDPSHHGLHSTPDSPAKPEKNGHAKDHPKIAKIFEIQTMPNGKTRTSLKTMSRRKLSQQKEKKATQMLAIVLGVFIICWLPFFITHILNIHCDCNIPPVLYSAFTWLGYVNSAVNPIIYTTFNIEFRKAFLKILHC

[4] = Partition coefficient (logP); format: physicochemical; details: octanol/water
[5] = biological target: Sigma 2 receptor; assay: In vitro for binding affinity at sigma-2 receptor by measuring its ability to displace [3H]DTG from guinea pig membranes; design: species or system Cavia porcellus
[6] = (§1) Ki ratio measured as Ki of sigma-2 receptor to that of sigma-1 receptor.
[7] = biological target: T1, Sigma non-opioid intracellular receptor 1 (Homo sapiens, UniProt Q99720); assay: Ki ratio measured as Ki of sigma-2 receptor to that of sigma-1 receptor; details: Cavia porcellus
T1 sequence (Q99720 whole entry): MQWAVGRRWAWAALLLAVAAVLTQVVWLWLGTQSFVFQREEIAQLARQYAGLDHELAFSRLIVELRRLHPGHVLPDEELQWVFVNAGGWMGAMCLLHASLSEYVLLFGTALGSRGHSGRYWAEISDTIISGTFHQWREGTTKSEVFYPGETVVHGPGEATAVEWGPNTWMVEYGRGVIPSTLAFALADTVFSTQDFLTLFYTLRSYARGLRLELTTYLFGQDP

[8] = biological target: T1, Sigma non-opioid intracellular receptor 1; assay: Receptor binding affinity against Sigma receptor
[9] = biological target: T1, Sigma non-opioid intracellular receptor 1; assay: as §1; details: Cavia porcellus
[10] = biological target: Sigma 2 receptor; assay: Receptor binding affinity against Sigma-2 receptor from guinea pig membranes; design: species or system Cavia porcellus
[11] = organism: Rattus norvegicus; assay: Blockade of uptake of the radiotracer in posterior cortex of rat; format: functional

Structure (SMILES)	Ki [2] [nM]	Ki [3] [nM]	logP [4]	Ki [5] [nM]	Ratio [6]	other results
CC(C)=CCN1CC[C@]2(C)c3cc(O)ccc3C[C@H]1[C@H]2C (single isomer, unassigned) [(+)-PENTAZOCINE]						Blockade [1]: 84%
N#Cc1ccc(OCC2CCN(CCF)CC2)cc1	> 10000	> 10000	2.42	361	14.9	
Fc1cccc(CN2CCC(COc3c(F)c(F)c(F)c(F)c3F)CC2)c1	> 10000		4.72	25	7.48	
O=C(CC1CCN(CC2CC2)CC1)c1ccc(F)cc1	15					
FCCN1CCC(COc2ccc(I)cc2)CC1	> 10000	> 10000	4.02	102	121	
N#Cc1ccc(OCC2CCN(Cc3ccccc3Br)CC2)cc1	> 1000		4.09	31.1	15.4	
Fc1ccc(CN2CCC(COc3c(F)c(F)c(F)c(F)c3F)CC2)cc1	> 10000			4.3	1.17	
N#Cc1ccc(OCC2CCN(Cc3ccc(F)cc3)CC2)cc1	> 10000	> 10000	3.22	5.2		Ratio [7]: 6.84
N#Cc1ccc(OCC2CCN(Cc3ccccc3I)CC2)cc1	> 1000		4.3	93.6	10.1	
Brc1ccc(OCC2CCN(CC3CC3)CC2)cc1	> 10000	> 10000	6.22	13.6	22.7	
N#Cc1ccccc1CN1CCC(COc2ccc(I)cc2)CC1	> 1000		4.32	142	13.5	
FCCCN1CCC(COc2c(F)c(F)c(F)c(F)c2F)CC1	> 10000		4.11	5.3	2.05	
O=[N+]([O-])c1ccc(OCC2CCN(CC3CC3)CC2)cc1	> 200					Ki [8]: 13 nM
O=[N+]([O-])c1ccc(OCC2CCN(Cc3ccc(F)cc3)CC2)cc1	> 10000	> 10000	3.62			Ratio [9]: 3.25; Ki [10]: 3.9 nM
FCCCN1CCC(COc2ccc(Br)cc2)CC1	> 10000	> 10000	5.88	13.1	34.5	
O=C(CCCN1CCC(O)(c2ccc(Cl)cc2)CC1)c1ccc(F)cc1 [HALOPERIDOL]						Blockade [11]: 91%
Ic1ccc(OCC2CCN(CC3CC3)CC2)cc1	> 10000	> 10000	6.67	11.7	23.4	
OCCN1CCC(COc2ccc(I)cc2)CC1	> 10000	> 10000	3.8	139	60.4	
Brc1cccc(OCC2CCN(CC3CC3)CC2)c1	> 10000	> 10000	6.36	9.9	11.3	
N#Cc1ccc(OCC2CCN(CC3CC3)CC2)cc1	> 200					Ki [8]: 10 nM
Fc1c(F)c(F)c(CN2CCC(COc3c(F)c(F)c(F)c(F)c3F)CC2)c(F)c1F	> 10000			> 1000		
N#Cc1ccc(OCC2CCN(CCCF)CC2)cc1	> 10000	> 10000	2.93	144		
N#Cc1cccc(CN2CCC(COc3ccc(I)cc3)CC2)c1	> 1000		4.19	69.5	24	
